From patent US20100092402A1, “TREATMENT OF RESPIRATORY DISEASE” (Mucokinetica Ltd., priority 2007, published 2010)

Experiments:
[1] = system: amiloride-sensitive (sodium-dependent) component of nasal PD; assay: Nasal PD measurement during perfusion of human nasal epithelium; format: in vivo; conditions: for average percent of maximum PD change in response to 10^−5 M-amiloride: 4 experiments, before perfusion 94% and 80%
Protocol: The method of measurement of nasal PD was an adaptation of that described by Standaert et al. (2004).
Ringer/HEPES buffer solution was prepared containing 148 mM-NaCl, 4.05 mM-KCl, 1.2 mM-CaCl2, 1.2 mM-MgCl2, 2.4 mM-K2HPO4, 0.4 mM-KH2PO4, 10 mM-HEPES, and adjusted to pH 7.4. Low chloride Ringer/HEPES buffer solution was prepared by replacing NaCl with 148 mM-Na gluconate in the Ringer solution components.
Agar electrodes were prepared with 3.7% agarose dissolved in Ringer/HEPES buffer pH 7.4. The reference electrode was placed and taped in contact with a small area on the forearm where the epidermis had been removed by gentle abrasion. A dual lumen nasal recording electrode was prepared using a lm length of soft plastic tubing 2.4 mm diameter, into which 1 mm diameter polythene tubing was inserted through the wall and along the lumen for 15 cm from one end. The 2.4 mm diameter tubing was filled with 3.7% agarose dissolved in Ringer/HEPES buffer pH 7.4. The 1 mm diameter tubing was used for perfusion of buffer solutions and drugs to the nasal epithelium. The ends of the agar electrodes were each placed in contact with a calomel half-cell in 3 M-KCl solution. Voltages were measured by connecting the calomel electrodes to a high impedance voltmeter (Keithley 617 programmable electrometer). Output from the voltmeter was recorded by connection to a Biopac MP100 data aquisition unit and PC running Acqknowledge III data acquisition software.
Nasal PD was recorded via the recording electrode placed in contact with the nasal epithelium approximately 4 cm inside the nostril. The nasal epithelium was perfused according to the following schedule and nasal PD was recorded continuously.
1. Ringer/HEPES buffer was perfused at 0.5 ml/min for 5 min, and starting baseline PD was recorded.
2. Perfusion was then switched to low chloride Ringer/HEPES buffer pH 7.4 for 30 min during which time initial hyperpolarisation of the epithelium occurred.
3. The nasal epithelium was then perfused with 10^−5 M-amiloride in low chloride Ringer/HEPES buffer pH 7.4 for 10 min. Measurement of the amiloride-sensitive (sodium-dependent) component of nasal PD was then made by measuring the difference between the average PD recorded over the 2 min before perfusion with amiloride and the average PD recorded in the period 4 to 6 min after perfusion with amiloride.
4. Amiloride was washed away from the nasal epithelium by perfusion with low chloride Ringer/HEPES buffer pH 7.4 for 30 min.
5. Steps 3 and 4 were then repeated twice more.
6. The nasal epithelium was then perfused with 3 μM 6-amidino-2-napthyl 4-guanidinobenzoate in low chloride Ringer/HEPES buffer pH 7.4 for 60 min.
7. Steps 3 and 4 were then repeated a further twice, followed by either a period of administration of amiloride (3 experiments), or a final repetition of both steps 3 and 4 (1 experiment).
Over the 5 h time course of each experiment nasal PD drifted and oscillated. […] Changes in nasal PD caused by perfusion of amiloride were calculated as the difference between the mean PD recorded in the 2 min period before perfusion with amiloride and the mean PD recorded in the plateau period 4 to 6 min after start of perfusion with amiloride. Within each experiment the change in nasal PD at each period of application of amiloride was expressed as a percentage of the maximum change observed in the experiment.

[2] = system: nasal epithelium; assay: Mucus host-defence responses during nasal perfusion; format: in vivo, human
Source text: Perfusion of the nasal epithelium with low chloride Ringer/HEPES buffer imposes a chemical gradient for chloride secretion, and therefore also provides a drive for fluid secretion.
Mucus host-defence episodes were scored 1 to 3 on the basis of the number of features and the magnitude of the responses observed. FIG. 10 reports the score of the episodes recorded, and indicates the time of their occurrence in the perfusion protocol.

[3] = system: cortical collecting duct of the rabbit kidney; conditions: Muto et al. 1993, cited from earlier work
[4] = system: prostasin; conditions: rats infused i.v. for 24h; cited from earlier work

## N=C(N)c1ccc2cc(OC(=O)c3ccc(N=C(N)N)cc3)ccc2c1 [6-amidino-2-napthyl 4-guanidinobenzoate]
[1]; 3.10^−6 M in low chloride Ringer/HEPES buffer pH 7.4 for 60 min
  time following perfusion for which amiloride-sensitive component of nasal PD was reduced: up to 80 min
[1]; 40 min after perfusion of 3.10^−6 M for 60 min
  average percent of maximum PD change in response to 10^−5 M-amiloride: 29%
[1]; 80 min after perfusion of 3.10^−6 M for 60 min
  average percent of maximum PD change in response to 10^−5 M-amiloride: 55%
[1]; immediately following 60 min perfusion of 3.10^−6 M
  average percent of maximum PD change in response to 10^−5 M-amiloride: 49%
[2]; perfusion of 3.10^−6 M in low chloride Ringer/HEPES buffer
  scores for episodes of mucus host-defence response (scored 1 to 3): Highest scores
[2]; perfusion with 3.10^−6 M in low chloride Ringer/HEPES buffer
  mucus host-defence responses: stimulated episodes of mucus host-defence responses
[3]; 10^−5 M
  effect on the rabbit kidney model: without effect
[3]; perfused at 10^−4 M
  change in transepithelial voltage, as share of that achievable by 5.10^−6 M amiloride: 40%
[3]; perfusion of 10^−4 M
  onset of change in transepithelial voltage: ≤ 30 s
[4]
  levels of prostasin secreted in the urine: reduced levels of prostasin
